This note sets out measurements from PubChem BioAssay (NCI).

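Five compound concentrations were applied to cells in 96-well plates for 48 hours; endpoints were derived by simple linear interpolation of the resulting dose-response curve. GI50 marks 50% less growth. TGI marks complete inhibition of growth.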 Bounds are passed on as bounds.

Test systems include MCF7 breast; UACC-62 melanoma; OVCAR-4 ovarian; SF-295 CNS; SF-268 CNS; CCRF-CEM leukemia; HCT-15 colon; PC-3 prostate; ACHN renal; RPMI-8226 leukemia.
Test in all cases: inhibition of tumour cell growth, NCI panel, 48 h

Consider `COc1cc2cc(Oc3ccc(NC(=O)c4ccc(Cl)c(Cl)c4)cc3)c(C)nc2cc1OC`, for which the GI50 was 5.32 µM in the assay with MCF7 breast; over 100 µM in the assay on UACC-62 melanoma; 5.26 µM in the assay with OVCAR-4 ovarian; 1.59 µM in the assay with SF-295 CNS; over 100 µM in the assay with SF-268 CNS; 4.44 µM in the assay with CCRF-CEM leukemia. The GI50 in the assay with HCT-15 colon was 7.94 µM; with PC-3 prostate, 4.77 µM; in the assay with ACHN renal it was 8.63 µM; in the assay with RPMI-8226 leukemia it was 3.7 µM. Moreover, the TGI with MCF7 breast, with UACC-62 melanoma, in the assay on OVCAR-4 ovarian, with SF-295 CNS, in the assay with SF-268 CNS and in the assay with CCRF-CEM leukemia was over 100 µM in each case. Moreover, the TGI in the assay on HCT-15 colon, in the assay with PC-3 prostate, in the assay on ACHN renal and in the assay on RPMI-8226 leukemia was over 100 µM throughout.
On to `Cc1cc(C)c(C2CNCc3cc4c(cc32)CNCC4c2c(C)cc(C)cc2C)c(C)c1` (stereo not given), for which the GI50 was 5.42 µg/mL in the assay on MCF7 breast; 6.7 µg/mL in the assay on UACC-62 melanoma; 2.48 µg/mL in the assay on OVCAR-4 ovarian; 3.44 µg/mL with SF-295 CNS; 3.17 µg/mL in the assay with SF-268 CNS; 1.86 µg/mL in the assay on CCRF-CEM leukemia. For the same compound, the GI50 with HCT-15 colon was 4.13 µg/mL; in the assay with PC-3 prostate, 5.67 µg/mL; with ACHN renal it was 3.76 µg/mL; in the assay with RPMI-8226 leukemia it was 2.25 µg/mL. The TGI turned out to be 20.1 µg/mL in the assay on MCF7 breast; 15.4 µg/mL with UACC-62 melanoma; 6.43 µg/mL in the assay with OVCAR-4 ovarian; 13.1 µg/mL in the assay on SF-295 CNS; 9.96 µg/mL in the assay with SF-268 CNS; 5.07 µg/mL in the assay on CCRF-CEM leukemia. Moreover, the TGI was 14.2 µg/mL in the assay with HCT-15 colon, 15.6 µg/mL with PC-3 prostate, 13.4 µg/mL in the assay on ACHN renal and 6.92 µg/mL with RPMI-8226 leukemia.
On to `COc1cc(C(=O)Nc2cc(O)c(CC=C(C)C)c(O)c2)cc2c1O[C@]1(C)CC[C@@H](O)C(C)(C)[C@H]1C2`, for which the GI50 is 0.256 µM in the assay with MCF7 breast; 0.187 µM in the assay with UACC-62 melanoma; 10.1 µM in the assay on OVCAR-4 ovarian; 0.0397 µM with SF-295 CNS; 1.79 µM in the assay with SF-268 CNS; 0.0962 µM in the assay with CCRF-CEM leukemia. Moreover, the GI50 in the assay on HCT-15 colon was 1.32 µM; in the assay with PC-3 prostate, 0.142 µM; with ACHN renal, 1.78 µM; with RPMI-8226 leukemia, 0.0959 µM. Also, the TGI is 15.4 µM in the assay on MCF7 breast; 1.57 µM in the assay with UACC-62 melanoma; over 100 µM with OVCAR-4 ovarian; 0.325 µM in the assay with SF-295 CNS; 39.3 µM in the assay with SF-268 CNS; over 100 µM in the assay on CCRF-CEM leukemia. The TGI amounted to 14.4 µM in the assay with HCT-15 colon, 37.5 µM in the assay on PC-3 prostate, 24.3 µM with ACHN renal and 0.816 µM in the assay with RPMI-8226 leukemia.
In the case of `O=C(NNS(=O)(=O)c1ccc(Cl)cc1Cl)c1cccnc1Nc1ccc(Cl)cc1`, the GI50 in the assay with MCF7 breast was 35.2 µM; in the assay on UACC-62 melanoma it was 22 µM; with OVCAR-4 ovarian, 28.7 µM; in the assay with SF-295 CNS, 30.2 µM; with SF-268 CNS, 36.5 µM; in the assay on CCRF-CEM leukemia, 6.62 µM. Further, the GI50 in the assay on HCT-15 colon is 33.4 µM; with PC-3 prostate, 23.4 µM; in the assay with ACHN renal, 29.6 µM; in the assay with RPMI-8226 leukemia, 17.7 µM. The TGI with MCF7 breast is over 100 µM; with UACC-62 melanoma, 75.4 µM; in the assay with OVCAR-4 ovarian, over 100 µM; with SF-295 CNS, 77.7 µM; in the assay on SF-268 CNS it was over 100 µM; in the assay with CCRF-CEM leukemia, over 100 µM. The TGI was over 100 µM in the assay on HCT-15 colon, 80.4 µM with PC-3 prostate, 93.5 µM in the assay with ACHN renal and 53.2 µM in the assay with RPMI-8226 leukemia.
Regarding `O=C(O)c1ccccc1NC(=S)c1ccccc1`, the TGI in the assay on MCF7 breast is over 100 µM; in the assay with UACC-62 melanoma, over 100 µM; in the assay on OVCAR-4 ovarian, 29 µM; in the assay on SF-295 CNS, over 100 µM; with SF-268 CNS, over 100 µM; with CCRF-CEM leukemia, over 100 µM. For the same compound, the TGI in the assay with HCT-15 colon is over 100 µM; in the assay on PC-3 prostate, over 100 µM; in the assay on ACHN renal, 84.6 µM; with RPMI-8226 leukemia, 75.8 µM.
With `CC1c2ccccc2CCN1c1ccc(CO)c(Cl)c1` (stereo not given), the GI50 with MCF7 breast was 0.0565 µM; in the assay with UACC-62 melanoma, 0.15 µM; in the assay on OVCAR-4 ovarian it was 0.049 µM; in the assay with SF-295 CNS, 0.274 µM; in the assay with SF-268 CNS, 40.8 µM; with CCRF-CEM leukemia, 30.9 µM. The GI50 was 13.3 µM in the assay on HCT-15 colon, 19.6 µM with PC-3 prostate, 22.6 µM in the assay with ACHN renal and 1.94 µM in the assay on RPMI-8226 leukemia. Further, the TGI in the assay with MCF7 breast was 23.2 µM; in the assay with UACC-62 melanoma it was 14.5 µM; in the assay on OVCAR-4 ovarian, 2.7 µM; with SF-295 CNS, 31.4 µM; in the assay on SF-268 CNS it was over 100 µM; in the assay with CCRF-CEM leukemia it was over 100 µM. Further, the TGI is 53.3 µM with HCT-15 colon, over 83.5 µM in the assay on PC-3 prostate, over 81 µM with ACHN renal and 47.5 µM in the assay on RPMI-8226 leukemia.
Take `CC(C)C[C@H](NC(=O)CCn1ccc2ccccc2c1=O)B(O)O`: the GI50 in the assay with MCF7 breast was 4.35 µM; in the assay on UACC-62 melanoma, 4.29 µM; in the assay on OVCAR-4 ovarian, 17 µM; in the assay on SF-295 CNS, 3.77 µM; in the assay on SF-268 CNS it was 5.69 µM; in the assay with CCRF-CEM leukemia, 2.02 µM. Moreover, the GI50 with HCT-15 colon was 9.57 µM; in the assay with PC-3 prostate, 5.77 µM; in the assay with ACHN renal, 1.75 µM; in the assay on RPMI-8226 leukemia, 1.06 µM. The TGI in the assay on MCF7 breast is over 100 µM; in the assay with UACC-62 melanoma, 24.9 µM; with OVCAR-4 ovarian, over 100 µM; in the assay with SF-295 CNS, 19.6 µM; with SF-268 CNS, 30.4 µM; in the assay on CCRF-CEM leukemia, 25.4 µM. Moreover, the TGI is over 100 µM with HCT-15 colon, over 100 µM in the assay on PC-3 prostate, over 100 µM in the assay on ACHN renal and 7.07 µM in the assay on RPMI-8226 leukemia.
On to `C[CH2][Hg][S]c1ccccc1C(=O)O`, for which the GI50 was 1.21 µM in the assay on MCF7 breast; 1.36 µM in the assay on UACC-62 melanoma; 2.01 µM in the assay on OVCAR-4 ovarian; 3.7 µM in the assay with SF-295 CNS; 1.68 µM in the assay on SF-268 CNS; 0.291 µM in the assay with CCRF-CEM leukemia. For the same compound, the GI50 in the assay on HCT-15 colon was 1.07 µM; in the assay with PC-3 prostate, 3.88 µM; with ACHN renal, 1.49 µM; with RPMI-8226 leukemia, 1.28 µM. Further, the TGI is 2.62 µM with MCF7 breast; 2.98 µM in the assay with UACC-62 melanoma; 7 µM in the assay with OVCAR-4 ovarian; 16.5 µM in the assay on SF-295 CNS; 3.18 µM with SF-268 CNS; 2.74 µM in the assay on CCRF-CEM leukemia. Further, the TGI in the assay on HCT-15 colon turned out to be 2.52 µM; in the assay on PC-3 prostate, 17.7 µM; in the assay on ACHN renal, 2.83 µM; in the assay with RPMI-8226 leukemia it was 4.24 µM.
